{
  "source": "paper PMC5622171",
  "about": "(Nature Communications, 2017)",
  "key": {"[1]": {"biological_target": "T1, RSK1(Kin.Dom.1-N-terminal) (Homo sapiens, UniProt Q15418)", "T1 construct": "RSK1(Kin.Dom.1-N-terminal); purchased DiscoverX (Ambit Biosciences) KINOMEscan", "T1 sequence (Q15418 1-391 limits assumed)": "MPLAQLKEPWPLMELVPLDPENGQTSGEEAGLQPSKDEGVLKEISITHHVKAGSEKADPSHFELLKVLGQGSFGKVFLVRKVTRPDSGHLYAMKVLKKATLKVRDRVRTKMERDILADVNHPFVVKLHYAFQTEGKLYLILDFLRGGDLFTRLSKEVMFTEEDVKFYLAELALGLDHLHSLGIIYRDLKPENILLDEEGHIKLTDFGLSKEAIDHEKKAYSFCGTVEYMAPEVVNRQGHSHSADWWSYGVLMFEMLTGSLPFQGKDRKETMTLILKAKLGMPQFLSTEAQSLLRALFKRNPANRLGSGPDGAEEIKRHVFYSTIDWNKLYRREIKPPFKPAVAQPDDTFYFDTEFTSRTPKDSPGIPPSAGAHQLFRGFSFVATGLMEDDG", "assay": "KINOMEscan kinase profiling", "format": "binding", "conditions": "read-out: %Inhibition by 10 μM SPA70", "protocol": "(§1) Kinase inhibition profiling assays. The kinase inhibition profiling assay (KINOMEscan) was performed by Ambit Biosciences, now part of DiscoveryX (Fremont, CA) in accordance with the […]\n(§2) published protocol20, 21. […] If the inhibition of a kinase was greater […]\n(§3) dilutions) starting from 30 µM."}, "[2]": {"biological_target": "T2, RSK4(Kin.Dom.1-N-terminal) (Homo sapiens, UniProt Q9UK32)", "T2 construct": "RSK4(Kin.Dom.1-N-terminal); purchased DiscoverX (Ambit Biosciences) KINOMEscan", "assay": "KINOMEscan kinase profiling", "format": "binding", "protocol": "as §1, §2, §3"}, "p38-delta": {"biological_target": "T3, p38-delta (Homo sapiens, UniProt O15264)", "T3 construct": "purchased DiscoverX (Ambit Biosciences) KINOMEscan", "assay": "KINOMEscan kinase profiling", "format": "binding", "conditions": "read-out: %Inhibition by 10 μM SPA70", "protocol": "as §1, §2, §3"}, "FLT4": {"biological_target": "T4, FLT4 (Homo sapiens, UniProt P35916)", "T4 construct": "purchased DiscoverX (Ambit Biosciences) KINOMEscan", "assay": "KINOMEscan kinase profiling", "format": "binding", "conditions": "read-out: %Inhibition by 10 μM SPA70", "protocol": "as §1, §2, §3"}, "[3]": {"biological_target": "T5, RSK3(Kin.Dom.1-N-terminal) (Homo sapiens, UniProt Q15349)", "T5 construct": "RSK3(Kin.Dom.1-N-terminal); purchased DiscoverX (Ambit Biosciences) KINOMEscan", "assay": "KINOMEscan kinase profiling", "format": "binding", "conditions": "read-out: %Inhibition by 10 μM SPA70", "protocol": "as §1, §2, §3"}, "NDR2": {"biological_target": "T6, NDR2 (Homo sapiens, UniProt Q9Y2H1)", "T6 construct": "purchased DiscoverX (Ambit Biosciences) KINOMEscan", "T6 sequence (Q9Y2H1 whole entry)": "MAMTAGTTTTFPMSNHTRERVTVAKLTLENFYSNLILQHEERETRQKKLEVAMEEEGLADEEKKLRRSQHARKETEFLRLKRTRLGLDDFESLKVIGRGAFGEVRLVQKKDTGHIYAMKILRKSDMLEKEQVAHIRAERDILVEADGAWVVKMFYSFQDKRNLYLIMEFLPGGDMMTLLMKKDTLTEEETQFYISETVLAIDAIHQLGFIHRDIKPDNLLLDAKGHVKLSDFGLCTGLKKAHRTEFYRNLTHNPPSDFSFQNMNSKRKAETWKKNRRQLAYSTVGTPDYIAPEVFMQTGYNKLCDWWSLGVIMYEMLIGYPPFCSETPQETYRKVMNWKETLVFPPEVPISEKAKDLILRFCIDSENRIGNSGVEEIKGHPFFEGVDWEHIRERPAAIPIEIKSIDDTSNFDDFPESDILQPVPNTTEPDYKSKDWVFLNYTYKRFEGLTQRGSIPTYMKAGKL", "assay": "KINOMEscan kinase profiling", "format": "binding", "conditions": "read-out: %Inhibition by 10 μM SPA70", "protocol": "as §1, §2, §3"}, "TRKC": {"biological_target": "T7, TRKC (Homo sapiens, UniProt Q16288)", "T7 construct": "purchased DiscoverX (Ambit Biosciences) KINOMEscan", "T7 sequence (Q16288 32-839)": "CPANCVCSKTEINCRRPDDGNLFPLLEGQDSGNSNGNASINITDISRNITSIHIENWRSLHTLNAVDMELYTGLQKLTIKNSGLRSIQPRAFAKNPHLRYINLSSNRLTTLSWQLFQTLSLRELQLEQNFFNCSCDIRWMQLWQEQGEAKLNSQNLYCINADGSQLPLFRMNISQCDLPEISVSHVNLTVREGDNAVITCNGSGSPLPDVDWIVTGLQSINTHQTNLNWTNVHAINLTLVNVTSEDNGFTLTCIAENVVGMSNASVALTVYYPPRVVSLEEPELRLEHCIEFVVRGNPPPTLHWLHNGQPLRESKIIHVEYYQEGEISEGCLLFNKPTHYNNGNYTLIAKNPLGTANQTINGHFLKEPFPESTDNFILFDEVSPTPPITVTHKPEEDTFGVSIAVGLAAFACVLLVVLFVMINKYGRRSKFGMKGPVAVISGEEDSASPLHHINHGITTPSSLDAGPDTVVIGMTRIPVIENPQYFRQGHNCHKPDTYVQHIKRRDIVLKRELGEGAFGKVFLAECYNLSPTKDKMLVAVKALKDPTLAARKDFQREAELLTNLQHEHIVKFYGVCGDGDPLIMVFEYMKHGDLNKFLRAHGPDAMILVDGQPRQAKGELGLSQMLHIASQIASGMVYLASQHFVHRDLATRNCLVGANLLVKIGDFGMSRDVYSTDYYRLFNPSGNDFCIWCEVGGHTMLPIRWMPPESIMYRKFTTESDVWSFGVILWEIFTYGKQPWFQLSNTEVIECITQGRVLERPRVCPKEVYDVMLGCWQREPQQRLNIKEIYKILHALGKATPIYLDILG", "assay": "KINOMEscan kinase profiling", "format": "binding", "conditions": "read-out: %Inhibition by 10 μM SPA70", "protocol": "as §1, §2, §3"}, "ABL1-nonphosphorylated": {"biological_target": "T8, ABL1-nonphosphorylated (Homo sapiens, UniProt P00519)", "T8 construct": "purchased DiscoverX (Ambit Biosciences) KINOMEscan", "T8 sequence (P00519 whole entry)": "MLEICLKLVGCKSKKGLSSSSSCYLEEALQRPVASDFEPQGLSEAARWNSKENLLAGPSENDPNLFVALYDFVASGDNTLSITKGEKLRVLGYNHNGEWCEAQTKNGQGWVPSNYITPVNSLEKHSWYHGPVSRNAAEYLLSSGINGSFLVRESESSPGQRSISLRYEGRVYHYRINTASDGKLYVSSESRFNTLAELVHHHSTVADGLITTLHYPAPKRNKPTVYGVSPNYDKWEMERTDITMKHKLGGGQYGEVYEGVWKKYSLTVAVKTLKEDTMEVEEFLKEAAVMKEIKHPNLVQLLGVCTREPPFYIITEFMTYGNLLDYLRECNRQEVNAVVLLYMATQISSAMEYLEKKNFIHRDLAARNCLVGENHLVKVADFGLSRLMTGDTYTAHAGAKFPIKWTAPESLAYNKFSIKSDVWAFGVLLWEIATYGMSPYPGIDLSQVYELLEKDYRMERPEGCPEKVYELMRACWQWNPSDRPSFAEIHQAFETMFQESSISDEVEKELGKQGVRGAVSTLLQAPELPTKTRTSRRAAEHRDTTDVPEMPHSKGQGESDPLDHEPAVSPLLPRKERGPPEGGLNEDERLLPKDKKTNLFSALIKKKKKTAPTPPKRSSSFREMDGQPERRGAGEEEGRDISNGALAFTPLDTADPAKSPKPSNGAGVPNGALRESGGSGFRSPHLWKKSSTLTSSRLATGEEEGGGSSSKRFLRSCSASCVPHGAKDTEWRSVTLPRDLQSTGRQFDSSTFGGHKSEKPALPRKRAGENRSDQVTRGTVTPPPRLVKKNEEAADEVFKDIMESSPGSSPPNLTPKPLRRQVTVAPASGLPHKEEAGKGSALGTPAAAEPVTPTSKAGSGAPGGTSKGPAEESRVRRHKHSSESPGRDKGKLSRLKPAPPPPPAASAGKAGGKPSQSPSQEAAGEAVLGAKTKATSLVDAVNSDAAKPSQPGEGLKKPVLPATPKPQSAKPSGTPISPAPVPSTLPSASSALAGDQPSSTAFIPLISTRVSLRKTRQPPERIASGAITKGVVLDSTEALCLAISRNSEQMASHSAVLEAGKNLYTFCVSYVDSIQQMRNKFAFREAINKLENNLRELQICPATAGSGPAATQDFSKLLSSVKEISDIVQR", "assay": "KINOMEscan kinase profiling", "format": "binding", "conditions": "read-out: %Inhibition by 10 μM SPA70", "protocol": "as §1, §2, §3"}, "IKK-epsilon": {"biological_target": "T9, IKK-epsilon (Homo sapiens, UniProt Q14164)", "T9 construct": "purchased DiscoverX (Ambit Biosciences) KINOMEscan", "assay": "KINOMEscan kinase profiling", "format": "binding", "conditions": "read-out: %Inhibition by 10 μM SPA70", "protocol": "as §1, §2, §3"}, "YANK3": {"biological_target": "T10, YANK3 (Homo sapiens, UniProt Q86UX6)", "T10 construct": "purchased DiscoverX (Ambit Biosciences) KINOMEscan", "assay": "KINOMEscan kinase profiling", "format": "binding", "conditions": "read-out: %Inhibition by 10 μM SPA70", "protocol": "as §1, §2, §3"}, "IRAK3": {"biological_target": "T11, IRAK3 (Homo sapiens, UniProt Q9Y616)", "T11 construct": "purchased DiscoverX (Ambit Biosciences) KINOMEscan", "assay": "KINOMEscan kinase profiling", "format": "binding", "conditions": "read-out: %Inhibition by 10 μM SPA70", "protocol": "as §1, §2, §3"}, "EPHA8": {"biological_target": "T12, EPHA8 (Homo sapiens, UniProt P29322)", "T12 construct": "purchased DiscoverX (Ambit Biosciences) KINOMEscan", "T12 sequence (P29322 28-1005)": "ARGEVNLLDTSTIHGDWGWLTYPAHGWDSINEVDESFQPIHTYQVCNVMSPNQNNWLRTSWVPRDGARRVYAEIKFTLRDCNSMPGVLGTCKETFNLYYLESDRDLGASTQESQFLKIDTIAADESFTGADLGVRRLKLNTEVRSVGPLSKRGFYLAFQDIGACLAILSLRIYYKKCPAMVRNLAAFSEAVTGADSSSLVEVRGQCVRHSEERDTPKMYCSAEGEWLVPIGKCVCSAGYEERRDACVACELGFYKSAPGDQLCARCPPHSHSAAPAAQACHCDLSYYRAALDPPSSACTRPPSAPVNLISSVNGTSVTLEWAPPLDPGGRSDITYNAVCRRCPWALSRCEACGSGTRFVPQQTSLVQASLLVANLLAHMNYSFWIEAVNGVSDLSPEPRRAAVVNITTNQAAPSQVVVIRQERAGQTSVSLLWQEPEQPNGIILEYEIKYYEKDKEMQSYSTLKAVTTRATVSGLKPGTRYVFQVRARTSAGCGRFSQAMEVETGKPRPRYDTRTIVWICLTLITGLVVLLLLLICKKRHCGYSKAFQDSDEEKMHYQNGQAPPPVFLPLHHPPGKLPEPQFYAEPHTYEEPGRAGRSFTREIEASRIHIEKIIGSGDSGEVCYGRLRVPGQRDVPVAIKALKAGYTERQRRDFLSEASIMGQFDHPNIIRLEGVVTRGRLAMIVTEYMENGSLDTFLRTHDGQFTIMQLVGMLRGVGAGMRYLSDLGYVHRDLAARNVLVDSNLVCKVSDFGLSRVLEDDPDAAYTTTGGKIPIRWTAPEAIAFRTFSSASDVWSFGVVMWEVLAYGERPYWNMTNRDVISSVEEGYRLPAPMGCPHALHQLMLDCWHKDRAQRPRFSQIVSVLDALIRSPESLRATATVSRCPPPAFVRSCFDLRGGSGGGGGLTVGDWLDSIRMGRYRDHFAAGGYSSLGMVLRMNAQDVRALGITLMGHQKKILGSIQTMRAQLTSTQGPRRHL", "assay": "KINOMEscan kinase profiling", "format": "binding", "conditions": "read-out: %Inhibition by 10 μM SPA70", "protocol": "as §1, §2, §3"}, "PCTK3": {"biological_target": "T13, PCTK3 (Homo sapiens, UniProt Q07002)", "T13 construct": "purchased DiscoverX (Ambit Biosciences) KINOMEscan", "assay": "KINOMEscan kinase profiling", "format": "binding", "conditions": "read-out: %Inhibition by 10 μM SPA70", "protocol": "as §1, §2, §3"}, "DAPK1": {"biological_target": "T14, DAPK1 (Homo sapiens, UniProt P53355)", "T14 construct": "purchased DiscoverX (Ambit Biosciences) KINOMEscan", "assay": "KINOMEscan kinase profiling", "format": "binding", "conditions": "read-out: %Inhibition by 10 μM SPA70", "protocol": "as §1, §2, §3"}, "PKMYT1": {"biological_target": "T15, PKMYT1 (Homo sapiens, UniProt Q99640)", "T15 construct": "purchased DiscoverX (Ambit Biosciences) KINOMEscan", "assay": "KINOMEscan kinase profiling", "format": "binding", "protocol": "as §1, §2, §3"}, "CSNK1A1L": {"biological_target": "T16, CSNK1A1L (Homo sapiens, UniProt Q8N752)", "T16 construct": "purchased DiscoverX (Ambit Biosciences) KINOMEscan", "T16 sequence (Q8N752 whole entry)": "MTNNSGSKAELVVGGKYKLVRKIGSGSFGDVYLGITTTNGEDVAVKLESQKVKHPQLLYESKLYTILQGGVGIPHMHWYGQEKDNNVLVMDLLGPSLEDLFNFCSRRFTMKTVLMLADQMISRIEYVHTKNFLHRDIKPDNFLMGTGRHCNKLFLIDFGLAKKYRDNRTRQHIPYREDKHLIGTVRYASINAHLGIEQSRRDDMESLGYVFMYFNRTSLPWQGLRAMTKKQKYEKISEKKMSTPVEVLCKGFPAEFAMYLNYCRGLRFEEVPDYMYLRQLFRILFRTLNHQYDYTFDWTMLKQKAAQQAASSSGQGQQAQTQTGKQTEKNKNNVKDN", "assay": "KINOMEscan kinase profiling", "format": "binding", "conditions": "read-out: %Inhibition by 10 μM SPA70", "protocol": "as §1, §2, §3"}, "PHKG2": {"biological_target": "T17, PHKG2 (Homo sapiens, UniProt P15735)", "T17 construct": "purchased DiscoverX (Ambit Biosciences) KINOMEscan", "assay": "KINOMEscan kinase profiling", "format": "binding", "conditions": "read-out: %Inhibition by 10 μM SPA70", "protocol": "as §1, §2, §3"}, "EPHA4": {"biological_target": "T18, EPHA4 (Homo sapiens, UniProt P54764)", "T18 construct": "purchased DiscoverX (Ambit Biosciences) KINOMEscan", "T18 sequence (P54764 20-986)": "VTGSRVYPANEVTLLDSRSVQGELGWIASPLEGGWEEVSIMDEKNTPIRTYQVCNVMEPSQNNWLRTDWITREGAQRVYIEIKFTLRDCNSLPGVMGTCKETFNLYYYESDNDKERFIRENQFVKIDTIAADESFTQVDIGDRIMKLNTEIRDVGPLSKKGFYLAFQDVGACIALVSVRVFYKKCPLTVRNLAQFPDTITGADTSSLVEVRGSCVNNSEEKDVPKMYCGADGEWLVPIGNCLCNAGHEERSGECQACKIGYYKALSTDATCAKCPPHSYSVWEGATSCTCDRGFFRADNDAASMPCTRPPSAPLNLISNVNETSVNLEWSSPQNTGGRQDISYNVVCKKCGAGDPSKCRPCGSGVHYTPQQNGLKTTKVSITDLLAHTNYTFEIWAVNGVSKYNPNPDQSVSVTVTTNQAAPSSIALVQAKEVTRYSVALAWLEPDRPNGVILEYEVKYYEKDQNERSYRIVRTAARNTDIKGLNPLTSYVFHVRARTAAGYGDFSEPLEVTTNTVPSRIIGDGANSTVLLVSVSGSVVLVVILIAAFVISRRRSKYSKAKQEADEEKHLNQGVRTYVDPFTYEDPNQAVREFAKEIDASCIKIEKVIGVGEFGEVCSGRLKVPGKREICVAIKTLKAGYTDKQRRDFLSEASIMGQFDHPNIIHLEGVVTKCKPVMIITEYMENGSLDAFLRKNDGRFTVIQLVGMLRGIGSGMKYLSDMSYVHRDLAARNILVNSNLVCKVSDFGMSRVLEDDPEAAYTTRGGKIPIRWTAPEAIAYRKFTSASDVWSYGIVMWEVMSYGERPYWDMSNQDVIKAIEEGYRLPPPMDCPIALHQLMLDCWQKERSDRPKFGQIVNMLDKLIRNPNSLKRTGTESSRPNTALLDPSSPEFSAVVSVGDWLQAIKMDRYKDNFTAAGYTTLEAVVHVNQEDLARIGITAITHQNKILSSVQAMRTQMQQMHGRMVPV", "assay": "KINOMEscan kinase profiling", "format": "binding", "conditions": "read-out: %Inhibition by 10 μM SPA70", "protocol": "as §1, §2, §3"}, "MAP3K3": {"biological_target": "T19, MAP3K3 (Homo sapiens, UniProt Q99759)", "T19 construct": "purchased DiscoverX (Ambit Biosciences) KINOMEscan", "assay": "KINOMEscan kinase profiling", "format": "binding", "conditions": "read-out: %Inhibition by 10 μM SPA70", "protocol": "as §1, §2, §3"}, "SNU-C4 cells": {"system": "SNU-C4 cells", "assay": "CellTiter-Glo cytotoxicity assay", "conditions": "10 µM SPA70"}, "HEK293 cells": {"system": "HEK293 cells", "assay": "One- and 3-day cytotoxicity assay", "format": "cell-based, human", "conditions": "HEK293, one- and 3-day", "protocol": "(§4) After the plated had been incubated for 24 or 72 h at 37 °C, the cytotoxicity was determined using a CellTiter-Glo luminescent cell viability assay (Promega). […] The final DMSO concentration was 0.5% for all wells."}, "HepG2 cells": {"system": "HepG2 cells", "assay": "One- and 3-day cytotoxicity assay", "format": "cell-based, human", "conditions": "HepG2, one- and 3-day", "protocol": "as §4"}, "hPXR": {"biological_target": "T20, hPXR (Homo sapiens, UniProt O75469)", "T20 sequence (O75469 1-434)": "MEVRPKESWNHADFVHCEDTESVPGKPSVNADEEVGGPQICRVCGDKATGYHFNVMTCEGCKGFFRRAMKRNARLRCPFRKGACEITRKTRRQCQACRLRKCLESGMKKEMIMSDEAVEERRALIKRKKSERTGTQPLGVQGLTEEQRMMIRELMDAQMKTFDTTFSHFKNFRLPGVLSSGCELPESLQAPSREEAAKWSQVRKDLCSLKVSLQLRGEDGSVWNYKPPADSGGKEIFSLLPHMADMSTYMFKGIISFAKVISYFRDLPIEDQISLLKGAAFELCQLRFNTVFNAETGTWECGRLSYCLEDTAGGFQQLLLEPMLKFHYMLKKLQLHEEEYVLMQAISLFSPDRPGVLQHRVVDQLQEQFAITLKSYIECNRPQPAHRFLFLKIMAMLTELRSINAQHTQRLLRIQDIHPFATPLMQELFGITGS", "assay": "hPXR transactivation assay, HepG2 stable cell line, antagonistic mode", "conditions": "SPA70 concentration of 10 μM; all rifampicin concentrations tested"}, "hPXR with TIF2": {"biological_target": "T21, hPXR with TIF2 (Homo sapiens, UniProt O75469)", "T21 construct": "expressed in transfected cells; host or cells: LS180", "assay": "Mammalian two-hybrid assay", "format": "cell-based", "conditions": "LS180 cells; SPA70 10 µM, SJB7 4 µM", "description": "(§5) The mammalian two-hybrid assay method has been described previously. Briefly, the CheckMate mammalian two-hybrid system (Promega) was used to evaluate the association between hPXR and its co-regulators. LS180 cells were co-transfected with an hPXR plasmid (pACT-hPXR, pACT-hPXRM429A or pACT-hPXRF429A), a coregulator plasmid (pBIND-SRC-1, pBIND-TIF2, pBIND-SMRTτ [amino acids 2077–2471], or pBIND-mNCoR [amino acids 1958–2401]), and a GAL4 firefly luciferase reporter plasmid (pG5-luc). The Renilla luciferase is constitutively expressed from the pBIND vector, and served as an internal transfection control. The activity of the firefly and Renilla luciferase was measured by using the Dual-Glo Luciferase Assay (Promega), and the relative luciferase activity of pG5-luc was determined by normalizing the activity of firefly luciferase to that of Renilla luciferase."}, "hPXR with SRC-1": {"biological_target": "T22, hPXR with SRC-1 (Homo sapiens, UniProt O75469)", "T22 construct": "expressed in transfected cells; host or cells: LS180", "assay": "Mammalian two-hybrid assay", "format": "cell-based", "conditions": "LS180 cells; SPA70 10 µM, SJB7 4 µM", "description": "as §5"}, "Hepa 1-6 cells": {"system": "Hepa 1-6 cells", "assay": "One- and 3-day cytotoxicity assay", "format": "cell-based, mouse", "conditions": "Hepa 1-6, one- and 3-day", "protocol": "as §4"}},
  "data": [
    {"smiles": "COc1ccc(OC)c(-n2nnc(S(=O)(=O)c3ccc(C(C)(C)C)cc3)c2C)c1", "note": "[SPA70]", "values": [
      {"measurement": "inhibition at 10 µM", "setting": "[1]", "result": 40, "unit": "%"},
      {"measurement": "%Inhibition by 10 μM SPA70", "setting": "[2]", "result": 4, "unit": "%"},
      {"measurement": "inhibition at 10 µM", "setting": "p38-delta", "result": 21, "unit": "%"},
      {"measurement": "inhibition at 10 µM", "setting": "FLT4", "result": 2, "unit": "%"},
      {"measurement": "inhibition at 10 µM", "setting": "[3]", "result": 0, "unit": "%"},
      {"measurement": "inhibition at 10 µM", "setting": "NDR2", "result": 0, "unit": "%"},
      {"measurement": "inhibition at 10 µM", "setting": "TRKC", "result": 0, "unit": "%"},
      {"measurement": "inhibition at 10 µM", "setting": "ABL1-nonphosphorylated", "result": 0, "unit": "%"},
      {"measurement": "inhibition at 10 µM", "setting": "IKK-epsilon", "result": 0, "unit": "%"},
      {"measurement": "inhibition at 10 µM", "setting": "YANK3", "result": 0, "unit": "%"},
      {"measurement": "inhibition at 10 µM", "setting": "IRAK3", "result": 15, "unit": "%"},
      {"measurement": "inhibition at 10 µM", "setting": "EPHA8", "result": 13, "unit": "%"},
      {"measurement": "inhibition at 10 µM", "setting": "PCTK3", "result": 9, "unit": "%"},
      {"measurement": "inhibition at 10 µM", "setting": "DAPK1", "result": 10, "unit": "%"},
      {"measurement": "%Inhibition by 10 μM SPA70", "setting": "PKMYT1", "result": 38, "unit": "%"},
      {"measurement": "inhibition at 10 µM", "setting": "CSNK1A1L", "result": 0, "unit": "%"},
      {"measurement": "inhibition at 10 µM", "setting": "PHKG2", "result": 0, "unit": "%"},
      {"measurement": "inhibition at 10 µM", "setting": "EPHA4", "result": 0, "unit": "%"},
      {"measurement": "inhibition at 10 µM", "setting": "MAP3K3", "result": 16, "unit": "%"},
      {"measurement": "Sensitization of SNU-C4 cells to paclitaxel and vincristine", "setting": "SNU-C4 cells", "result": "sensitizing the cells to paclitaxel and vincristine"},
      {"measurement": "Cytotoxicity", "setting": "HEK293 cells", "result": "marginal cytotoxicity"},
      {"measurement": "Cytotoxicity", "setting": "HepG2 cells", "result": "marginal cytotoxicity"},
      {"measurement": "Effect on rifampicin-induced hPXR activation", "setting": "hPXR", "result": "completely blocked the activity of rifampicin"},
      {"measurement": "Increase of association of hPXR with TIF2", "setting": "hPXR with TIF2", "result": "did not affect"},
      {"measurement": "Increase of association of hPXR with SRC-1", "setting": "hPXR with SRC-1", "result": "did not affect"},
      {"measurement": "Cytotoxicity", "setting": "Hepa 1-6 cells", "result": "marginal cytotoxicity"}
    ]}
  ]
}
